The target of assay [1] is T1, Dual specificity mitogen-activated protein kinase kinase 6 (Homo sapiens) (UniProt P52564).
T1 sequence (whole entry): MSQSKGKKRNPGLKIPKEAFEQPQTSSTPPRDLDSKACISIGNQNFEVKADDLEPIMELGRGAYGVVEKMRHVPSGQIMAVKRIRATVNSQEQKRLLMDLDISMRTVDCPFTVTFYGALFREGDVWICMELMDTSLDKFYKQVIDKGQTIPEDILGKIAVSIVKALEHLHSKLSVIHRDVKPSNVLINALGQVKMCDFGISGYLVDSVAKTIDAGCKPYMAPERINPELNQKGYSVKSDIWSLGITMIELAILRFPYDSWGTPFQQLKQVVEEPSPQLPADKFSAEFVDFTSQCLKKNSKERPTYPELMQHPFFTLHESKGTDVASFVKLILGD
Description: Selectivity interaction (ProQinase) EUB0000171b MAP2K6.

Assay [2] concerns the target Cyclin-dependent kinase 17 (Homo sapiens) (UniProt Q00537). The following applies: at 10 µM.
The target in assay [3] is Receptor-type tyrosine-protein kinase FLT3 (Homo sapiens) (UniProt P36888). Description: Selectivity interaction (SelectScreen Kinase Profiling (Thermo Fisher Scientific)) EUB0001558a FLT3. The following applies: at 1 µM.
The subject of assay [4] is Tyrosine-protein kinase ABL1 (Homo sapiens), P00519 [Q252H]. Description: Selectivity interaction (Ambit KINOMEscan and KiNATiv profiling in Jurkat cells) EUB0000090b ABL1. Format: cell-based. The following applies: at 1 µM.
The target in assay [5] is Cyclin-dependent kinase 8 (Homo sapiens, UniProt P49336). As to the kind of experiment: Selectivity interaction (KinomeScan (DiscoverX)) EUB0000092b CDK8. The following applies: at 10 µM.
Assay [6] addresses T2, Serine/threonine-protein kinase D1 (Homo sapiens) (UniProt Q15139).
T2 sequence (whole entry): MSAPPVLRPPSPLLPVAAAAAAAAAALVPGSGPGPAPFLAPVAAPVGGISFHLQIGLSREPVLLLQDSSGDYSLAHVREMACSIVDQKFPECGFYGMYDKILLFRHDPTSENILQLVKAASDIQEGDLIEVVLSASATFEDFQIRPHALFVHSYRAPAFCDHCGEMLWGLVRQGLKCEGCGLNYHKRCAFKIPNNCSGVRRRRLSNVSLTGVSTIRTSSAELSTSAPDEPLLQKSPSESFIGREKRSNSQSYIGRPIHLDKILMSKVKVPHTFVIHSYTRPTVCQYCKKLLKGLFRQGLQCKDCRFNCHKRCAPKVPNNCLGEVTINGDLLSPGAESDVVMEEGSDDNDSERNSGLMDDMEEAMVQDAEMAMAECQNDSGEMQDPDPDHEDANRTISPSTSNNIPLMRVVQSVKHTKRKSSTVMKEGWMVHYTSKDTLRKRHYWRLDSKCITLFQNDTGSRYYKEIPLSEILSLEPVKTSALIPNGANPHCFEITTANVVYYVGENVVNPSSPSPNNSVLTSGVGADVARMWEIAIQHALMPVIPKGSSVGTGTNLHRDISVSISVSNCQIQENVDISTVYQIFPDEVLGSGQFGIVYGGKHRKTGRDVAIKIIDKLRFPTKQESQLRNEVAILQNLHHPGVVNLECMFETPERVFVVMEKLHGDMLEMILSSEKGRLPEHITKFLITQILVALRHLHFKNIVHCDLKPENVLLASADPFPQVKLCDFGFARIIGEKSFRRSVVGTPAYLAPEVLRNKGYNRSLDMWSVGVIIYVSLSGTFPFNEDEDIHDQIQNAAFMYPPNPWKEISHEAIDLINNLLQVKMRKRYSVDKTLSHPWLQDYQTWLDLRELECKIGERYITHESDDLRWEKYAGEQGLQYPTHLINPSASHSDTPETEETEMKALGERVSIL
As to the kind of experiment: Selectivity interaction (KinomeScan (DiscoverX)) EUB0001049a PRKD1. The following applies: at 1 µM.

Assay [7] concerns the target Serine/threonine-protein kinase pim-1 (Homo sapiens, UniProt P11309). As to the kind of experiment: Selectivity interaction (Kinase screening (Nanosyn)) EUB0000604a PIM1.
Assay [8] deals with Serine/threonine-protein kinase 26 (Homo sapiens, UniProt Q9P289). Description: Selectivity interaction (SelectScreen profiling (Invitrogen)) EUB0000607a STK26. The following applies: at 2 µM.
Assay [9] deals with Phosphatidylinositol 4-phosphate 3-kinase C2 domain-containing subunit beta (Homo sapiens) (UniProt O00750). As to the kind of experiment: Selectivity interaction (KinomeScan (DiscoverX)) EUB0000595a PIK3C2B. The following applies: at 10 µM.
Assay [10] has as its target T3, Mitogen-activated protein kinase kinase kinase kinase 3 (Homo sapiens) (UniProt Q8IVH8).
T3 sequence (whole entry): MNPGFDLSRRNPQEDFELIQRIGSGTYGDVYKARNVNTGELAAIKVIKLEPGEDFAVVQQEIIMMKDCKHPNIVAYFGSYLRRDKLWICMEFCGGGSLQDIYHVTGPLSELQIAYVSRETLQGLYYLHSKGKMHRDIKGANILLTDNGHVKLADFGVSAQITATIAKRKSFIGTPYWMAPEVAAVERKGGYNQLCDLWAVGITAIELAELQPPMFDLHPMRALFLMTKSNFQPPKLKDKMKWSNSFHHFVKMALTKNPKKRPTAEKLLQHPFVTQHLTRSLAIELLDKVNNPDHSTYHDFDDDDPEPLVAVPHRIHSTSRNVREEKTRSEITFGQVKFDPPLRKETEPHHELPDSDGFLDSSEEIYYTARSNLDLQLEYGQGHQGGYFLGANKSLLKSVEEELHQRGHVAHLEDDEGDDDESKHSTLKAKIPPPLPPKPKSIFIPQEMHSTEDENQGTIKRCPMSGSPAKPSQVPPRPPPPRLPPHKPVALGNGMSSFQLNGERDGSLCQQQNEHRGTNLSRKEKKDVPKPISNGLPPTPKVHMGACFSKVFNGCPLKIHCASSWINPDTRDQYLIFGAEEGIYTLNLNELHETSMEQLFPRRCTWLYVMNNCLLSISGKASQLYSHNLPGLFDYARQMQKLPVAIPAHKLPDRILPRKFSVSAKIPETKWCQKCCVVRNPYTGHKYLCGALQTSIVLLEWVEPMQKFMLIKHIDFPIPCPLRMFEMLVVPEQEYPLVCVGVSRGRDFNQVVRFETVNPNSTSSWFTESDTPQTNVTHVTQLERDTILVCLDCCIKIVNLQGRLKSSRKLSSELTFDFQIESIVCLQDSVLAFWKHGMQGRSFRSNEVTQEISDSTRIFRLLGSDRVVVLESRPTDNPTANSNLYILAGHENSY
Description: Selectivity interaction (KinomeScan (DiscoverX)) EUB0001619a MAP4K3. The following applies: at 1 µM.

Assay [11] deals with Serine/threonine-protein kinase PAK 2 (Homo sapiens) (UniProt Q13177). Description: Selectivity interaction (KinomeScan (DiscoverX)) EUB0001619a PAK2. The following applies: at 1 µM.
For assay [12], the target named is LIM domain kinase 1 (Homo sapiens) (UniProt P53667). Description: Selectivity interaction (KinomeScan (DiscoverX)) EUB0001619a LIMK1. The following applies: at 1 µM.

Molecules are shown by their SMILES.

Serine/threonine-protein kinase pim-1, sequence (P11309 whole entry, looked up): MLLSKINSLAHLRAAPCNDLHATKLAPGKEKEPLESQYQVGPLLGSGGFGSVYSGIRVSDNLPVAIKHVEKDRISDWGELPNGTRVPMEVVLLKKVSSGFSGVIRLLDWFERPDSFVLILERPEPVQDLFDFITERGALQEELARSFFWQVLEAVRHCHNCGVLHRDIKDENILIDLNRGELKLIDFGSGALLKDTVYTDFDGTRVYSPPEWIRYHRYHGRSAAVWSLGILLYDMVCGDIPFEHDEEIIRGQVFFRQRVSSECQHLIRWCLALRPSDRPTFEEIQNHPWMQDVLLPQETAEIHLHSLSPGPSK
Receptor-type tyrosine-protein kinase FLT3 (Homo sapiens), sequence (P36888 whole entry): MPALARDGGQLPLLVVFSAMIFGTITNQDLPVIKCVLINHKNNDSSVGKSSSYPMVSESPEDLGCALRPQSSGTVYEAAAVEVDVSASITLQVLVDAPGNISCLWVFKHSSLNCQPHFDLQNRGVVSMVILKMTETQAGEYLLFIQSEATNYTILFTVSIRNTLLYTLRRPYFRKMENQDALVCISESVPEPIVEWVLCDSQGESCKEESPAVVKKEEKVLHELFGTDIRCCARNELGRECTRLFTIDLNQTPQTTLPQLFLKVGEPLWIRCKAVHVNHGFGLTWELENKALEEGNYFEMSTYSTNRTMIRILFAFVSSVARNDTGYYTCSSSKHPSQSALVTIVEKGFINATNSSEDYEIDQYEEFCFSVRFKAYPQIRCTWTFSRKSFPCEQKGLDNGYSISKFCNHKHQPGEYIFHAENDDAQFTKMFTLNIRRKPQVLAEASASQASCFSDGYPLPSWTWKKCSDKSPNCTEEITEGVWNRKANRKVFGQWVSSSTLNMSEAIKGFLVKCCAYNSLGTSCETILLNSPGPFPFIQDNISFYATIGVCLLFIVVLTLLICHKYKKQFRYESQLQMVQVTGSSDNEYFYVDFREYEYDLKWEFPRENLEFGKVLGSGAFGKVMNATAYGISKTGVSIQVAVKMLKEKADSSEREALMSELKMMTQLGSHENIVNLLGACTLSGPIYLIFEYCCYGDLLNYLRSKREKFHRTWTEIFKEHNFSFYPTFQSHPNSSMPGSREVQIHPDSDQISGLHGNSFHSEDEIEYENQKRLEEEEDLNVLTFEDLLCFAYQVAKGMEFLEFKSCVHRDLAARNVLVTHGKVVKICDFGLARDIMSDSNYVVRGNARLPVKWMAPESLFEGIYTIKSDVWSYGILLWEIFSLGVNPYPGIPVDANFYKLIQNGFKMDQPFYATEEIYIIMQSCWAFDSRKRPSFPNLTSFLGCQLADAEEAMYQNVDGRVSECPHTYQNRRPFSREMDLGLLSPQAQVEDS
Phosphatidylinositol 4-phosphate 3-kinase C2 domain-containing subunit beta (Homo sapiens), sequence (O00750 whole entry, the tested form may be a part): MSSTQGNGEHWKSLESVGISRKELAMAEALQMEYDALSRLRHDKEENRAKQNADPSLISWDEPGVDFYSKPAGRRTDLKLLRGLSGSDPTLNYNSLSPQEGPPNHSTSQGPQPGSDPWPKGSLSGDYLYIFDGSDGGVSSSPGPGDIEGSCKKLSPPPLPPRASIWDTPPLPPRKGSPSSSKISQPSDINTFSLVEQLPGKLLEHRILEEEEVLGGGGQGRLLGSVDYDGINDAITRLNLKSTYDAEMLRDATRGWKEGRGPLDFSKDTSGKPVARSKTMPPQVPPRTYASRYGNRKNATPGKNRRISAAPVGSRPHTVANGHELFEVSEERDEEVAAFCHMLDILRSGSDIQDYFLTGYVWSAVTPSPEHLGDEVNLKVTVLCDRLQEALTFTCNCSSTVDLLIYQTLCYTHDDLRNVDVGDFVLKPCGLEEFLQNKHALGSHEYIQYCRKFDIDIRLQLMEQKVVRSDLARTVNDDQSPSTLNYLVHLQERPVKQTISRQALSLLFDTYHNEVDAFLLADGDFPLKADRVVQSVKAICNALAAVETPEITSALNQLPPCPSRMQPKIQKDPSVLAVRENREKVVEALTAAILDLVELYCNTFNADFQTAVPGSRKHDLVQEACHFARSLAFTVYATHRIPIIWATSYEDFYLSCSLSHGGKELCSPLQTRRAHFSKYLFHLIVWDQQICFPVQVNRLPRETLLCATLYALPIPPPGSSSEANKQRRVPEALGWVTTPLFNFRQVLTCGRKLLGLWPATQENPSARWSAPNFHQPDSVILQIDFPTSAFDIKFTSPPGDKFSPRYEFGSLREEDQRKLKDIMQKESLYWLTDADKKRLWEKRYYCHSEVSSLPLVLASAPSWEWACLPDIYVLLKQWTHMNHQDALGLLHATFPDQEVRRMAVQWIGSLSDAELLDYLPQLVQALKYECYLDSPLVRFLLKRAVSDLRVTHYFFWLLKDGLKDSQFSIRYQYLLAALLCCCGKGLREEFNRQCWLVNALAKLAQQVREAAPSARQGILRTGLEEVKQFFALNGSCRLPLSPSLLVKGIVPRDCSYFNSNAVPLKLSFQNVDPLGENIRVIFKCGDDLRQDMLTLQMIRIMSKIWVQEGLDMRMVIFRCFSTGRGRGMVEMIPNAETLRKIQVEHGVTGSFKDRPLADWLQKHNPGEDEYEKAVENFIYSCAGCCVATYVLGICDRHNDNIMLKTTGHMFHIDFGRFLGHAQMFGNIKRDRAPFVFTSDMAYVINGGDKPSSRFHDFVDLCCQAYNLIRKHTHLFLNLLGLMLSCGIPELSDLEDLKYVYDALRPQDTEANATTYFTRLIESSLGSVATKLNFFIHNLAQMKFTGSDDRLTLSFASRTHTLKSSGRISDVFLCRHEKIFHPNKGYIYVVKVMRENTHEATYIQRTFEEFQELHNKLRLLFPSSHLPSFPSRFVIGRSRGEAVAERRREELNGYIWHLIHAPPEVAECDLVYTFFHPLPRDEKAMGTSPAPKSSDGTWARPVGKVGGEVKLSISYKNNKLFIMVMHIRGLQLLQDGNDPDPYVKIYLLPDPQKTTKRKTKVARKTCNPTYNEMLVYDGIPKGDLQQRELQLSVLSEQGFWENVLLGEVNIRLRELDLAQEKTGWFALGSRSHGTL
LIM domain kinase 1 (Homo sapiens), sequence (P53667 whole entry, looked up, the tested form may be a part): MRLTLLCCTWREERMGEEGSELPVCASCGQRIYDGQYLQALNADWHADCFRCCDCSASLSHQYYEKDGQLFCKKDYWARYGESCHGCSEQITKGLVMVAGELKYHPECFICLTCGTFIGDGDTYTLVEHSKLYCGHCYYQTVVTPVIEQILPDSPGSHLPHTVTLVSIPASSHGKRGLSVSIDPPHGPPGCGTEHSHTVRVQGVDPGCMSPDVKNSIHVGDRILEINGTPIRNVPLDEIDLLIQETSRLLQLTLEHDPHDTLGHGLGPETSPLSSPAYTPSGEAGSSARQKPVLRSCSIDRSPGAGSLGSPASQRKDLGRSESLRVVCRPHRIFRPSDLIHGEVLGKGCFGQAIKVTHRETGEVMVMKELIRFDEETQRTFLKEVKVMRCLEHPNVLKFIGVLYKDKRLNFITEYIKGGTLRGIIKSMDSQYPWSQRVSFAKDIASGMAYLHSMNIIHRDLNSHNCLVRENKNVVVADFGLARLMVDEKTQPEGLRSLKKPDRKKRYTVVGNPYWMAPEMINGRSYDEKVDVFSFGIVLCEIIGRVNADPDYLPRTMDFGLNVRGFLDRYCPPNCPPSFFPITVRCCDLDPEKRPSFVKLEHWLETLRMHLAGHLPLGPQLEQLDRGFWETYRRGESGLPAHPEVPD
Cyclin-dependent kinase 8, sequence (P49336 whole entry): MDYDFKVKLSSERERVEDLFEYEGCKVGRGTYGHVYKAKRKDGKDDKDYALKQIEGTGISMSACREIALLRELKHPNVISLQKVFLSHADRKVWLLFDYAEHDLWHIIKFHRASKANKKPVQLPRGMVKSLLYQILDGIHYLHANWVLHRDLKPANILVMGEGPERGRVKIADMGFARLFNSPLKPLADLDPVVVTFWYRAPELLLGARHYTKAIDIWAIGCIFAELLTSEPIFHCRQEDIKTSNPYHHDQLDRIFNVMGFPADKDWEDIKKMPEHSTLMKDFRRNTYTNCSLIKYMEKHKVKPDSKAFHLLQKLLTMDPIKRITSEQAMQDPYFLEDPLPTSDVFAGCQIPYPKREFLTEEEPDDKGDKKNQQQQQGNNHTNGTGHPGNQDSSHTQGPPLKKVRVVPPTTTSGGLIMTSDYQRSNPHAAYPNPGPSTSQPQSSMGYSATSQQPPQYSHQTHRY
Cyclin-dependent kinase 17 (Homo sapiens), sequence (Q00537 whole entry, looked up): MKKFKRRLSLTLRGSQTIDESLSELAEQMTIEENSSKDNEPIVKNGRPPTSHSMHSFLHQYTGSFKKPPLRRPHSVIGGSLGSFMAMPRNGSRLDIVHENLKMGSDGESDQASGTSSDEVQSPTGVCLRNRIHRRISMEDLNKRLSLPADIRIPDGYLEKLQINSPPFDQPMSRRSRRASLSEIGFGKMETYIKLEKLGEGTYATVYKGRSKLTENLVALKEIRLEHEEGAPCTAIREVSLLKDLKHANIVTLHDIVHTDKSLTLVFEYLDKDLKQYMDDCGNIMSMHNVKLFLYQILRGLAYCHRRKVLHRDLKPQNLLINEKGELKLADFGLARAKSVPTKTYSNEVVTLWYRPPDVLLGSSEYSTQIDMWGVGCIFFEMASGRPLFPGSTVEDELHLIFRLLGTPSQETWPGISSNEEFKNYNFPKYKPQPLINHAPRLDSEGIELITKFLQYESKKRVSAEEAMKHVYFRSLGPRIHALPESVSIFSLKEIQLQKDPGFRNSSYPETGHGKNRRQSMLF
Serine/threonine-protein kinase 26, sequence (Q9P289 2-416 limits assumed): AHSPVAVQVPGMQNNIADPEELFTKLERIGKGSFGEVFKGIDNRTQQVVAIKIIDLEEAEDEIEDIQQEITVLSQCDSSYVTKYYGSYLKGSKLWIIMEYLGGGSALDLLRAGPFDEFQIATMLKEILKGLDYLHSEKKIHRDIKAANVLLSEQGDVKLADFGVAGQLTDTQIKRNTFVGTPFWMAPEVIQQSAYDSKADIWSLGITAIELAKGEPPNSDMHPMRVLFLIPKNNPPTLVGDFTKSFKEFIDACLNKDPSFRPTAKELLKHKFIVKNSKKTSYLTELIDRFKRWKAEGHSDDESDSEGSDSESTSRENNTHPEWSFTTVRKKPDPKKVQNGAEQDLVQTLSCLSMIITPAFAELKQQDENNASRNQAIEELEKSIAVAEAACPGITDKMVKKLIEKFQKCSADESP

With `C=CC(=O)Nc1cccc(C(=O)Nc2ccc(Nc3cc(-c4[nH]c(SC)nc4C)ccn3)cc2)c1`, the % of control is 103% in [1] (at 1 µM) and 126% in assay [1] (at 5 µM).

`Cc1cc([C@@H](C)Nc2ccccc2C(=O)O)c2nc(N3CCOCC3)cc(=O)n2c1` [AZD-6482]: in assay [2], the % of control amounted to 100%.

In [3], `CC(C)(O)[C@H](F)CN1Cc2cc(NC(=O)c3cnn4cccnc34)c(N3CCOCC3)cc2C1=O` registered a % of inhibition of 90.8%.

Consider `CN(C)C/C=C/C(=O)Nc1ccc(C(=O)N2CCCC(Nc3ncc(Cl)c(-c4c[nH]c5ccccc45)n3)C2)cc1` (stereo not drawn), for which the % of control in assay [4] was found to be 100%.

`CCC(=O)N1CCN(c2ccc(-n3c(=O)ccc4cnc5ccc(-c6cnc7ccccc7c6)cc5c43)cc2C(F)(F)F)CC1`: in assay [5], the % of control worked out at 4.6%.

Consider `COc1cc(Nc2nc(C)cc(-c3cnn4nc(OC)ccc34)n2)cc(C(F)(F)F)c1`, for which, in [6], the % of control came to 100%.

Turning to `Cc1cnc(Nc2ccc(F)cc2Cl)nc1-c1c[nH]c(C(=O)N[C@H](CO)c2cccc(Cl)c2)c1`, the % of inhibition in assay [7] worked out at 0%.

As to `CNC(=O)Nc1ccc(-c2nc(N3CC4CCC(C3)O4)c3cnn(C4CCC5(CC4)OCCO5)c3n2)cc1`, the % of inhibition in [8] was 7%.

On to `COCC(=O)NC/C=C/c1ccc2ncnc(Nc3ccc(Oc4ccc(C)nc4)c(C)c3)c2c1` [CP-724714], for which the % of control in assay [9] was 88%.

As to `N#Cc1cccc(-c2c[nH]c3ncnc(N4CCOCC4)c23)c1`, the % of control in [10] amounted to 4.8%; in assay [11], 100%; in [12], 93%.

The values above are taken from ChEMBL document CHEMBL5465560, “Selectivity Literature for EUbOPEN Chemogenomic Library” (2024).
